Laboratory results: PubChem BioAssay AID624166 (Johns Hopkins Ion Channel Center, 2012)
Activity calls are given as the source filed them.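 Rule for the calls: active = raises the calcium signal in non-induced parental cells at some tested dose and a dose-response curve can be fitted; inactive = no activation at any dose, or no dose-response curve.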

Columns and labels:
[1] = system: HEK293 M3R non-induced RGS4, carbachol calcium Fluo4; assay: M3R signalling without RGS4 expression – cell-based, HEK293 M3R, non-induced RGS4, SAR compounds, counter-screen for RGS4 potentiator project, SAR follow-up (AID 624166)
[2] = as above; conditions: HEK293 M3R non-induced RGS4, carbachol calcium Fluo4; at 33.3 µM (top of the series)

SMILES | EC50 [1] | calcium response, lower = inhibition [2]
S=c1[nH]nc(-c2ccc(Cl)cc2)n1CC1CCCO1 (stereo not drawn) | 7.62 µM | –
O=C(Nc1ccccc1N1CCN(C(=O)c2ccccc2)CC1)c1ccc(Cl)o1 | – | 17.2 (inactive)
CCN1CCCC1CNCc1ccccc1OCc1ccc(F)cc1 (stereo not drawn) | 10.8 µM | –
Cc1ccc(NC(=O)c2cc(-c3cccs3)nc3ccccc23)nc1 | – | 52.7 (inactive)
CCn1cc(CN2CCC(n3nccc3NC(=O)c3ccc(OC)cc3)CC2)cn1 | 9.27 µM | –
COC(=O)C1CCCN(C(=O)c2cc(-c3ccc(C)cc3)nc3ccccc23)C1 (stereo not drawn) | 16.1 µM | –
O=C(CNc1ccccc1)c1ccc([N+](=O)[O-])cc1 | – | 24.6 (inactive)
O=C(CNC1CCCCCC1)Nc1ccc(S(=O)(=O)NC2CC2)cc1 | – | 19.6 (inactive)
CCCCn1c(-c2csc(CCC)c2)n[nH]c1=S | 3.34 µM | –
CC(C)Cn1c(-c2ccc(F)cc2)n[nH]c1=S | 4.11 µM | –
Cc1ccc(S(=O)(=O)c2ccc(Oc3cccc(C)c3)cc2)cc1 | 2.7 µM | –
CN(Cc1ccc(F)cc1)C(=O)C(c1ccccc1)c1ccccc1 | 3.18 µM | –
COC(=O)c1cccc(Nc2nc(-c3cccnc3)nc3ccccc23)c1 | 5.82 µM | –
